From patent publication US8722896B2, “Prokineticin receptor antagonists and uses thereof” (The Regents of the University of California, priority 2008, dated 2014)

test system: not listed separately; assay: Chronic treatment in diet-induced diabetes model, circulating glucose; type: in vivo, mice; settings: 0.1 and 0.01 mg/ml in drinking water for two weeks; measured 3, 7 and 14 days; high-fat diet 8 weeks (FIG. 3)
Experimental: Diet-induced diabetes models were created by feeding with high-fat diet for 8 weeks. These mice developed glucose intolerance and hyperglycemia. 3Cl-R-PLP was dissolved in drinking water and given to mice for two weeks. Circulating glucose levels were measured 3, 7 and 14 days after 3Cl-R-PLP treatment.

| Compound | circulating glucose levels |
| --- | --- |
| CC(C)CN(Cc1cc(Cl)c2c(c1)OCCCO2)C(=O)[C@@H]1CCN(Cc2ccccc2)C1 [Example 15, (3R)-1-Benzyl-N-(9-chloro-3,4-dihydro-2H-1,5-benzodioxepin-7-ylmethyl)-N-isobutyl pyrrolidine-3-carboxamide] | effectively decreased the glucose levels |

test system: not listed separately; assay: Chronic treatment in db/db mice, glucose levels; type: in vivo; settings: 0.1 mg/mL in drinking water, 2 weeks, 10-week old db/db mice, fed and fasting conditions (FIG. 4)
Experimental: Db/db mice are commonly used as genetic models of type II diabetes. 10-week old db/db mice were treated with 3Cl-R-PLP (0.1 mg/mL in drinking water) or vehicle for 2 weeks.

| Compound | glucose levels |
| --- | --- |
| CC(C)CN(Cc1cc(Cl)c2c(c1)OCCCO2)C(=O)[C@@H]1CCN(Cc2ccccc2)C1 [Example 15, (3R)-1-Benzyl-N-(9-chloro-3,4-dihydro-2H-1,5-benzodioxepin-7-ylmethyl)-N-isobutyl pyrrolidine-3-carboxamide] | significantly decreased glucose levels |

test system: not listed separately; assay: Glucose tolerance test (GTT), mice fed regular chow; type: in vivo; settings: 0, 1, 4, 12 and 40 mg/kg of body weight (FIG. 1B)
Experimental: (§1) The compound (3R)-1-Benzyl-N-(9-chloro-3,4-dihydro-2H-1,5-benzodioxepin-7-ylmethyl)-N-isobutyl pyrrolidine-3-carboxamide (3Cl-R-PLP) was dissolved in PEG-400 and then resuspended in water with 8% final concentration of PEG-400.8% PEG-400 in water without drug was used as vehicle. Mice were fed with regular chow. Drug or vehicle was gavaged to mice that were fasted overnight. Two hours later, glucose (2 g/kg of body weight) was injected i.p. and whole venous blood obtained from the tail vein at 0, 15, 30, 90 and 120 min after the injection was measured for glucose by using an automatic glucometer (one Touch, Lifescan, Daly, Calif.).

| Compound | dose dependence of performance in GTT |
| --- | --- |
| CC(C)CN(Cc1cc(Cl)c2c(c1)OCCCO2)C(=O)[C@@H]1CCN(Cc2ccccc2)C1 [Example 15, (3R)-1-Benzyl-N-(9-chloro-3,4-dihydro-2H-1,5-benzodioxepin-7-ylmethyl)-N-isobutyl pyrrolidine-3-carboxamide] | dose-dependent effect |

same assay, conditions: 4 mg/kg of body weight, gavage 2 h before glucose 2 g/kg i.p., fasted mice, regular chow (FIG. 1A)

| Compound | glucose clearance in GTT |
| --- | --- |
| CC(C)CN(Cc1cc(Cl)c2c(c1)OCCCO2)C(=O)[C@@H]1CCN(Cc2ccccc2)C1 [Example 15, (3R)-1-Benzyl-N-(9-chloro-3,4-dihydro-2H-1,5-benzodioxepin-7-ylmethyl)-N-isobutyl pyrrolidine-3-carboxamide] | improved glucose clearance significantly |

test system: not listed separately; assay: GTT in mice fed high-fat diet (diet-induced hyperglycemia); type: in vivo; settings: 40 mg/kg body weight, mice on high fat diet 8 weeks (FIG. 2)
Experimental: as §1
High fat diet was fed to mice for 8 weeks to induced diet-induced hyperglycemia. GTT test was carried out as described earlier.

| glucose clearance in GTT | Compound |
| --- | --- |
| significantly improved glucose clearance | CC(C)CN(Cc1cc(Cl)c2c(c1)OCCCO2)C(=O)[C@@H]1CCN(Cc2ccccc2)C1 [Example 15, (3R)-1-Benzyl-N-(9-chloro-3,4-dihydro-2H-1,5-benzodioxepin-7-ylmethyl)-N-isobutyl pyrrolidine-3-carboxamide] |

molecular target: recombinant PKR1 (Homo sapiens (Human), UniProt Q8TCW9); assay: Aequorin-based Ca2+ mobilization antagonist assay, CHO cells expressing PKR1; type: cell-based; settings: not given
Experimental: An aequorin-based luminescent assay for calcium mobilization was used to measure mobilization of intracellular Ca^2+ (Bullock et al., Mol Pharmacol 65, 582-588, 2004). Chinese hamster ovary (CHO) cells stably expressing photoprotein aequorin and recombinant PKR1 or PKR2 were tested by this method. Briefly, the cells were charged in Opti-MEM (Invitrogen) containing 8 μM of coelenterazine cp at 37° C. for 2 hours. Cells were detached by brief typsinization and maintained in Hank's Balanced Salt Solution (HBSS) plus 10 mM HEPES (pH7.5) and 0.1% BSA at about 5×10^5 cells/ml. Luminescence measurements were made using a Berthold luminometer.
All compounds were diluted in HBSS plus 10 mM HEPES (pH7.5) and 0.1% BSA. To test the agonist activity, 100 μl of cells were injected into the tubes with 20 μl of compounds. For antagonist assays, 80 μl cells were incubated in the tubes with 20 μl different concentrations of antagonists at room temperature for 20 minutes, and then 100 μl of recombinant PK2 were injected. The IC50 obtained from the assays were then converted to Ki values using the formula: IC50/(1+[PK2]/EC50PK2).
The following compounds were prepared using the above synthetic routes and protocols by varying the starting materials, reagents or conditions used. The requisite reagents were either commercially available, described in the literature, or readily synthesized by one skilled in the art. The potency of these compounds in antagonizing PK2-stimulated calcium mobilization were tested in Chinese hamster ovary (CHO) cells that stably express recombinant PKR1 or PKR2.

| Compound | Ki [nM] |
| --- | --- |
| CC(C)CN(Cc1cc(Cl)c2c(c1)OCCCO2)C(=O)C(C)CNCc1cccc2c1OCO2 (centres unmarked) | 44.8 |
| CC(C)CN(Cc1cc(Cl)c2c(c1)OCCCO2)C(=O)[C@@H]1CCCN(Cc2cccc3[nH]ccc23)C1 | 38 |
| CC(C)CN(Cc1cc(Cl)c2c(c1)OCCCO2)C(=O)[C@@H]1CCN(Cc2cccc(N)c2)C1 | 133 |
| CC(C)CN(Cc1cc(Cl)c2c(c1)OCCCO2)C(=O)[C@H](C)CNCc1cc(F)c(F)cc1F | 258 |
| CCc1c(C)cccc1CN1CC[C@@H](C(=O)N(Cc2cc(Cl)c3c(c2)OCCCO3)CC(C)C)C1 | 226 |
| CCc1cccc(CN2CC[C@@H](C(=O)N(Cc3cc(Cl)c4c(c3)OCCCO4)CC(C)C)C2)c1 | 88.8 |
| COc1ccccc1CN1CCC[C@@H](C(=O)N(Cc2cc(Cl)c3c(c2)OCCCO3)CC(C)C)C1 | 38.8 |
| COc1ccccc1CN1CCC[C@@H](C(=O)N(Cc2ccc3c(c2)OCCCO3)CC(C)C)C1 | 38.6 |
| Cc1cccc(CN2CCC[C@@H](C(=O)N(Cc3cc(Cl)c4c(c3)OCCCO4)CC(C)C)C2)c1 | 29.4 |
| CC(C)CN(Cc1cc(Cl)c2c(c1)OCCCO2)C(=O)C(C)CNCc1cccc2c1OCCO2 (racemic) | 58.4 |
| CC(C)CN(Cc1cc(Cl)c2c(c1)OCCCO2)C(=O)C1CCN(Cc2ccccc2)O1 (racemic) | 2200 |
| CCc1c(C)cccc1CNCC(C)C(=O)N(Cc1cc(Cl)c2c(c1)OCCCO2)CC(C)C (racemic) | 226 |
| Cc1ccc(C)c(CN2CCOC(C(=O)N(Cc3cc(Cl)c4c(c3)OCCCO4)CC(C)C)C2)c1 (racemic) | 83 |
| Cc1cccc(C)c1CNCC(C)C(=O)N(Cc1cc(Cl)c2c(c1)OCCCO2)CC(C)C (racemic) | 44 |
| Cc1cccc(CNCC(C)C(=O)N(Cc2cc(Cl)c3c(c2)OCCCO3)CC(C)C)c1 (racemic) | 44.2 |
| Cc1ccccc1CN1CCOC(C(=O)N(Cc2cc(Cl)c3c(c2)OCCCO3)CC(C)C)C1 (racemic) | 37.4 |

The remaining lines, values ahead:

| Ki [nM] | Compound |
| --- | --- |
| 9.42 | CC(C)CN(Cc1cc(Cl)c2c(c1)CCCCO2)C(=O)[C@@H]1CCCN(Cc2cccc3ccn(C)c23)C1 |
| 11.6 | CC(C)CN(Cc1cc(Cl)c2c(c1)CCCCO2)C(=O)[C@@H]1CCN(Cc2cccc3c2ccn3C)C1 |
| 16.5 | CC(C)CN(Cc1cc(Cl)c2c(c1)OCCCO2)C(=O)C(C)CNCc1cccc2ccn(C)c12 (centres unmarked) |
| 3.29 | CC(C)CN(Cc1cc(Cl)c2c(c1)OCCCO2)C(=O)[C@@H]1CCCN(Cc2cccc3c2NCC3)C1 |
| 24 | CC(C)CN(Cc1cc(Cl)c2c(c1)OCCCO2)C(=O)[C@@H]1CCN(Cc2ccc(F)c(N)c2)C1 |
| 12.8 | COc1ccccc1CN1CC[C@@H](C(=O)N(Cc2ccc3c(c2)OCCCO3)CC(C)C)C1 |
| 4.02 | CC(C)CN(Cc1cc(Cl)c2c(c1)CCCCO2)C(=O)C1CN(Cc2cccc3cc[nH]c23)CCO1 (racemic) |
| 9.94 | CC(C)CN(Cc1cc(Cl)c2c(c1)CCCCO2)C(=O)C1CN(Cc2cccc3ccn(C)c23)CCO1 (racemic) |
| 12.5 | CC(C)CN(Cc1cc(Cl)c2c(c1)OCCCO2)C(=O)C1CN(Cc2cccc3c2ccn3C)CCO1 (racemic) |
| 24.4 | CC(C)CN(Cc1cc(Cl)c2c(c1)OCCCO2)C(=O)C1CN(Cc2cccc3ccn(C)c23)CCO1 (racemic) |
| 13 | Cc1cccc(CNCC(C)C(=O)N(Cc2cc(Cl)c3c(c2)OCCCO3)CC(C)C)c1C (racemic) |
| 19.6 | Cc1ccccc1CNCC(C)C(=O)N(Cc1cc(Cl)c2c(c1)OCCCO2)CC(C)C (racemic) |

same assay, conditions: antagonism of PK2-stimulated calcium mobilization in CHO cells; Ki = IC50/(1+[PK2]/EC50PK2); read-out: Ki for PKR1

| Ki [nM] | Compound |
| --- | --- |
| 50 | COc1cc(F)ccc1CNCC(C)C(=O)N(Cc1cc(Cl)c2c(c1)OCCCO2)CC(C)C (racemic) [(±)-2-Methyl-3-((2-methoxy-4-fluoro)benzylamino)-N-(9-chloro-3,4-dihydro-2H-1,5-benzodioxepin-7-ylmethyl)-N-isobutylpropanamide] |
| 11.6 | COc1cc(CNCC(C)C(=O)N(Cc2cc(Cl)c3c(c2)OCCCO3)CC(C)C)ccc1F (racemic) [(±)-2-Methyl-3-((3-methoxy-4-fluoro)benzylamino)-N-(9-chloro-3,4-dihydro-2H-1,5-benzodioxepin-7-ylmethyl)-N-isobutylpropanamide] |
| 104 | CC(C)CN(Cc1cnc2c(c1)OCCCO2)C(=O)C1CCCN(Cc2cccc3cc[nH]c23)C1 (single isomer, unassigned; (-)) |
| 65.2 | COc1cc(F)ccc1CN1CCC[C@@H](C(=O)N(Cc2cc(Cl)c3c(c2)OCCCO3)CC(C)C)C1 [(−)-(3R)-1-(4-Fluoro-2-methoxybenzyl)-N-(9-chloro-3,4-dihydro-2H-1,5-benzodioxepin-7-ylmethyl)-N-isobutylpiperidine-3-carboxamide] |
| 7.72 | COc1cc(F)ccc1CN1CC[C@@H](C(=O)N(Cc2cc(Cl)c3c(c2)OCCCO3)CC(C)C)C1 [(−)-(3R)-1-(4-Fluoro-2-methoxybenzyl)-N-(9-chloro-3,4-dihydro-2H-1,5-benzodioxepin-7-ylmethyl)-N-isobutylpyrrolidine-3-carboxamide] |
| 8.68 | COc1cc(CN2CCC[C@@H](C(=O)N(Cc3cc(Cl)c4c(c3)OCCCO4)CC(C)C)C2)ccc1F [(−)-(3R)-1-(4-Fluoro-3-methoxybenzyl)-N-(9-chloro-3,4-dihydro-2H-1,5-benzodioxepin-7-ylmethyl)-N-isobutylpiperidine-3-carboxamide] |
| 9.66 | COc1cc(CN2CC[C@@H](C(=O)N(Cc3cc(Cl)c4c(c3)OCCCO4)CC(C)C)C2)ccc1F [(−)-(3R)-1-(4-Fluoro-3-methoxybenzyl)-N-(9-chloro-3,4-dihydro-2H-1,5-benzodioxepin-7-ylmethyl)-N-isobutylpyrrolidine-3-carboxamide] |
| 87.3 | CC(C)CN(Cc1cc(Cl)c2c(c1)OCCCO2)C(=O)[C@@H]1CCCN(Cc2cccc3c2N(C)CC3)C1 [(−)-(3R)-1-(N-methyl-indolin-7-ylmethyl)-N-(9-chloro-3,4-dihydro-2H-1,5-benzodioxepin-7-ylmethyl)-N-isobutylpiperidine-3-carboxamide] |
| 224 | CC(C)CN(Cc1cc(Cl)c2c(c1)OCC(F)(F)CO2)C(=O)[C@@H]1CCN(Cc2ccccc2)C1 [(−)-(3R)-1-Benzyl-N-(9-chloro-3,3-difluoro-3,4-dihydro-2H-1,5-benzodioxepin-7-ylmethyl)-N-isobutylpyrrolidine-3-carboxamide] |

| Compound | Ki [nM] |
| --- | --- |
| CC(=O)Oc1cccc(CN2CCOC(C(=O)N(Cc3cc(Cl)c4c(c3)OCCCO4)CC(C)C)C2)c1 (racemic) [(±)-(3R)-1-(3-acetoxybenzyl)-N-(9-chloro-3,4-dihydro-2H-1,5-benzodioxepin-7-ylmethyl)-N-isobutylmorpholine-3-carboxamide] | 8.5 |
| CC(=O)Oc1cccc(CN2CCC[C@@H](C(=O)N(Cc3cc(Cl)c4c(c3)OCCCO4)CC(C)C)C2)c1 [(−)-(3R)-1-(3-acetoxybenzyl)-N-(9-chloro-3,4-dihydro-2H-1,5-benzodioxepin-7-ylmethyl)-N-isobutylpiperidine-3-carboxamide] | 107 |
